Test results: patent US12569464B2, “Protein-protein interaction inducing technology” (Arvinas Operations, Inc., priority 2016, dated 2026)
Like-named read-outs stand apart in the source and are kept apart here.

Tests used:
c-Myc expression = assay: c-Myc ELISA assay in 22RV1 cells; format: cell-based, human
Experimental: It is composed of a BRD4-binding warhead which is connected to a VHL-binding warhead by a linear connector. […] Either the inhibition of BRD4 (by binding and blocking the active site of BRD4) or the degradation of BRD4 leads to the down-regulation of the expression level of a downstream protein c-Myc. […] MD simulation of a ternary system composed of BRD4 bromodomain 1, the ligand L and the complex of VHL with EB and EC in the presence of explicit water was performed.
The connector linking the BRD-4 binding warhead and the cereblon-binding warhead was systematically probed from 2 to 8 atoms. For comparison, the parent inhibitor of BRD4 (compound JQ1) was also prepared. […] The expression level of a downstream protein c-Myc was measured. In this assay, either the inhibition of BRD4 (by binding and blocking the active site of BRD4) or the degradation of BRD4 leads to the down-regulation of the expression level of c-Myc.
The connector linking the BRD4 warhead and the VHL-binding warhead was systematically probed from 5 to 19 atoms. […] The expression level of a downstream protein c-Myc was measured. In this assay, either the inhibition of BRD4 (e.g., by binding and blocking the active site of BRD4) or the degradation of BRD4 results in the down-regulation of the expression level of c-Myc.
c-Myc ELISA Assay Protocol
22RV-1 cells were purchased from ATCC and cultured in RPMI+10% FBS media. Cells were harvested using trypsin (Gibco #25200-114), counted and seeded at 30,000 cells/well at a volume of 75 μL/well in RPMI+10% FBS media in 96-well plates. The cells were dosed with compounds diluted in 0.1% DMSO, incubated for 18h then washed and lysed in 50 uL RIPA buffer (50 mM Tris pH8, 150 mM NaCl, 1% Tx-100, 0.1% SDS, 0.5% sodium deoxycholate) supplemented with protease and phosphatase inhibitors. The lysates were clarified at 4000 rpm at 4° C. for 10 minutes then aliquots were added into a 96-well ELISA plate of Novex Human c-Myc ELISA kit from Life Technologies Catalog #KHO2041. 50 µL of c-Myc Detection antibody was added into every well, the plates incubated at room temperature for 3 hrs, then washed with ELISA wash buffer. 100 μL of the anti-rabbit IgG-HRP secondary antibody was added to each well and incubated at room temperature for 30 minutes. The plates were washed with ELISA wash buffer, 100 μL TMB added to each well, and then monitored every 5 minutes for a color change. 100 μL of stop solution is added and the plates read at 450 nm.

AR = biological target: T1, AR (Homo sapiens, UniProt P10275+P40337, T878A); assay: AR degradation in LNCaP cells (androgen receptor ELISA); format: cell-based; conditions: LNCaP cells; for DC50: read-out: AR degradation potency DC50
T1 construct: degradation Dmax of AR in LNCaP cells; endogenous in cells; host or cells: LNCaP
T1 sequence (Q15370 whole entry): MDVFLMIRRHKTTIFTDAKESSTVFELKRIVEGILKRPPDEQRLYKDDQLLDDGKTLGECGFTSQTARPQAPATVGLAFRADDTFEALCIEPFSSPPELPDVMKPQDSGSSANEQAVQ
T1 sequence (P40337 whole entry): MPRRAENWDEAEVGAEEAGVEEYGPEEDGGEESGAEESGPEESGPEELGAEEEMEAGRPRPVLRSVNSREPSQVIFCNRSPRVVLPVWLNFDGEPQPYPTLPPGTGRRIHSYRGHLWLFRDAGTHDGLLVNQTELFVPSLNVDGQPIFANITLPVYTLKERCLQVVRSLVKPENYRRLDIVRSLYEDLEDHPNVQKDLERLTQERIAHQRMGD
T1 sequence (P10275 whole entry T878A): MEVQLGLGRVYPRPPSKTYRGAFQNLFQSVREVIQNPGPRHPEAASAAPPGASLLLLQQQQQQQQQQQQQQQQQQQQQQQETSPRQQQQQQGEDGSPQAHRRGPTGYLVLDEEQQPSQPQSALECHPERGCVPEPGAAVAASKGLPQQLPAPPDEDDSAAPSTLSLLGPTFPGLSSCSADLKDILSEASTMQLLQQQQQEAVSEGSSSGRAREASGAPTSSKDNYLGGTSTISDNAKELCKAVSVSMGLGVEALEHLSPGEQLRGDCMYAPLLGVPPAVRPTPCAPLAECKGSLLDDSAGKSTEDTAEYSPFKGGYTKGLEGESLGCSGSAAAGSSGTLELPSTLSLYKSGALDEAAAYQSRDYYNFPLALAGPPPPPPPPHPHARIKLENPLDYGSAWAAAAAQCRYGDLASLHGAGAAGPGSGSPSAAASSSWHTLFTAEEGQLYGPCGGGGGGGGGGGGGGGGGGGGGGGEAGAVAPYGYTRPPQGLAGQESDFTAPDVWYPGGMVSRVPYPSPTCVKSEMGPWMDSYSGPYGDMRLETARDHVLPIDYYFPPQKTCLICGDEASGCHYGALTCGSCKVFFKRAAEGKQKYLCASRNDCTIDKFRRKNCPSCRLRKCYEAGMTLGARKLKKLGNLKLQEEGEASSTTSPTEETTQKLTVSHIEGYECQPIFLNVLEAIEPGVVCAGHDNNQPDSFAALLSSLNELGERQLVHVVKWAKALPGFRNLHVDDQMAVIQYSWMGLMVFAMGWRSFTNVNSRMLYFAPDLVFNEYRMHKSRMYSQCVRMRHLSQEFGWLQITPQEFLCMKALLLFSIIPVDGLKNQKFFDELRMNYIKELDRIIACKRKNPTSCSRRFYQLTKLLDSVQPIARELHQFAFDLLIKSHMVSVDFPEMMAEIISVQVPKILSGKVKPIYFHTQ
T1 sequence (Q15369 whole entry, further chain): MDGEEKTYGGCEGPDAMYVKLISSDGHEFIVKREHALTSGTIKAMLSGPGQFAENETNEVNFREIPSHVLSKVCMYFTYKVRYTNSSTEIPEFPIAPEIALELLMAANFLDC
Experimental: The connector linking the AR-binding warhead and the VHL-binding warhead was systematically probed from 4 to 23 atoms. The AR degradation potency DC50 and the maximum percentage of degradation Dmax of AR in LNCaP cells were measured for each of these compounds. […] The binary binding potency with respect to AR was also measured for some of the compounds by the cell-based ligand (R1881) displacement assay. The ratio α between the AR-binding potency and the degradation potency are calculated when it is possible.
Androgen Receptor ELISA Assay
The protocols used with VCaP cells are described below. The androgen receptor ELISA assay was performed using PathScan AR ELISA (Cell Signaling Catalog #12850) according to the following assay steps: […]

[1] = 22RV1 cells, BRD4-cereblon series, Table 2
[2] = 22RV1 cells, BRD4-cereblon series, Table 2, read-out: c-Myc expression inhibition IC50
[3] = 22RV1 cells, BRD4-VHL series, Table 3
[4] = 22RV1 cells, BRD4-VHL series, Table 3, read-out: c-Myc expression inhibition IC50
[5] = 22RV1 cells, connector composition changes, Table 4
[6] = 22RV1 cells, connector composition changes, Table 4, read-out: c-Myc expression inhibition IC50

Compound: Cc1sc2c(c1C)C(c1ccc(Cl)cc1)=NC(CC(=O)NCCNc1cccc3c1C(=O)N(C1CCC(=O)NC1=O)C3=O)c1nnc(C)n1-2 (mixture of isomers) [Compound 19]
- maximum inhibition Imax (c-Myc expression; [1]): 96%
- IC50 (c-Myc expression; [2]): 187 nM

Compound: Cc1sc2c(c1C)C(c1ccc(Cl)cc1)=NC(CC(=O)NCCCNc1cccc3c1C(=O)N(C1CCC(=O)NC1=O)C3=O)c1nnc(C)n1-2 (mixture of isomers) [Compound 20]
- maximum inhibition Imax (c-Myc expression; [1]): 93%
- IC50 (c-Myc expression; [2]): 123 nM

Compound: Cc1sc2c(c1C)C(c1ccc(Cl)cc1)=NC(CC(=O)NCCCCNc1cccc3c1C(=O)N(C1CCC(=O)NC1=O)C3=O)c1nnc(C)n1-2 (mixture of isomers) [Compound 21]
- maximum inhibition Imax (c-Myc expression; [1]): 88%
- IC50 (c-Myc expression; [2]): 250 nM

Compound: Cc1sc2c(c1C)C(c1ccc(Cl)cc1)=NC(CC(=O)NCCCCCNc1cccc3c1C(=O)N(C1CCC(=O)NC1=O)C3=O)c1nnc(C)n1-2 (mixture of isomers) [Compound 22]
- maximum inhibition Imax (c-Myc expression; [1]): 100%
- IC50 (c-Myc expression; [2]): 3.79 nM

Compound: Cc1sc2c(c1C)C(c1ccc(Cl)cc1)=NC(CC(=O)NCCOCCNc1cccc3c1C(=O)N(C1CCC(=O)NC1=O)C3=O)c1nnc(C)n1-2 (mixture of isomers) [Compound 23]
- maximum inhibition Imax (c-Myc expression; [1]): 100%
- IC50 (c-Myc expression; [2]): 0.682 nM

Compound: Cc1sc2c(c1C)C(c1ccc(Cl)cc1)=NC(CC(=O)NCCOCCOCCNc1cccc3c1C(=O)N(C1CCC(=O)NC1=O)C3=O)c1nnc(C)n1-2 (mixture of isomers) [Compound 25]
- maximum inhibition Imax (c-Myc expression; [1]): 100%
- IC50 (c-Myc expression; [2]): 13 nM

Compound: Cc1ncsc1-c1ccc(CNC(=O)[C@@H]2C[C@@H](O)CN2C(=O)[C@@H](NC(=O)CCOCCOc2ccc(N3C(=S)N(c4ccc(C#N)c(C(F)(F)F)c4)C(=O)C3(C)C)cc2)C(C)(C)C)cc1 [Compound 3]
- maximum AR degradation Dmax (AR): 56%

Compound: Cc1ncsc1-c1ccc(CNC(=O)[C@@H]2C[C@@H](O)CN2C(=O)[C@@H](NC(=O)CCOCCCOc2ccc(N3C(=S)N(c4ccc(C#N)c(C(F)(F)F)c4)C(=O)C3(C)C)cc2)C(C)(C)C)cc1 [Compound 4]
- maximum AR degradation Dmax (AR): 18%
- DC50 (AR): > 3000 nM

Compound: Cc1ncsc1-c1ccc(CNC(=O)[C@@H]2C[C@@H](O)CN2C(=O)[C@@H](NC(=O)COCCOCCCOc2ccc(N3C(=S)N(c4ccc(C#N)c(C(F)(F)F)c4)C(=O)C3(C)C)cc2)C(C)(C)C)cc1 [Compound 6]
- maximum AR degradation Dmax (AR): 54%
- DC50 (AR): 72 nM

Compound: Cc1ncsc1-c1ccc(CNC(=O)[C@@H]2C[C@@H](O)CN2C(=O)[C@@H](NC(=O)COCCCOCCCOc2ccc(N3C(=S)N(c4ccc(C#N)c(C(F)(F)F)c4)C(=O)C3(C)C)cc2)C(C)(C)C)cc1 [Compound 7]
- maximum AR degradation Dmax (AR): 56%
- DC50 (AR): 390 nM

Compound: Cc1ncsc1-c1ccc(CNC(=O)[C@@H]2C[C@@H](O)CN2C(=O)[C@@H](NC(=O)COCCCNC(=O)C[C@@H]2N=C(c3ccc(Cl)cc3)c3c(sc(C)c3C)-n3c(C)nnc32)C(C)(C)C)cc1 [Compound 26]
- maximum inhibition Imax (c-Myc expression; [3]): 98%
- IC50 (c-Myc expression; [4]): 95 nM

Compound: Cc1ncsc1-c1ccc(CNC(=O)[C@@H]2C[C@@H](O)CN2C(=O)[C@@H](NC(=O)COCCCCNC(=O)C[C@@H]2N=C(c3ccc(Cl)cc3)c3c(sc(C)c3C)-n3c(C)nnc32)C(C)(C)C)cc1 [Compound 27]
- maximum inhibition Imax (c-Myc expression; [3]): 100%
- IC50 (c-Myc expression; [4]): 78 nM

Compound: Cc1ncsc1-c1ccc(CNC(=O)[C@@H]2C[C@@H](O)CN2C(=O)[C@@H](NC(=O)COCCOCCNC(=O)C[C@@H]2N=C(c3ccc(Cl)cc3)c3c(sc(C)c3C)-n3c(C)nnc32)C(C)(C)C)cc1 [Compound 28]
- maximum inhibition Imax (c-Myc expression; [3]): 94%
- IC50 (c-Myc expression; [4]): 80.5 nM

Compound: Cc1ncsc1-c1ccc(CNC(=O)[C@@H]2C[C@@H](O)CN2C(=O)[C@@H](NC(=O)COCCCOCCNC(=O)C[C@@H]2N=C(c3ccc(Cl)cc3)c3c(sc(C)c3C)-n3c(C)nnc32)C(C)(C)C)cc1 [Compound 29]
- maximum inhibition Imax (c-Myc expression; [3]): 97%
- IC50 (c-Myc expression; [4]): 0.16 nM
- maximum inhibition Imax (c-Myc expression; [5]): 97%
- IC50 (c-Myc expression; [6]): 0.16 nM

Compound: Cc1ncsc1-c1ccc(CNC(=O)[C@@H]2C[C@@H](O)CN2C(=O)[C@@H](NC(=O)COCCCOCCCNC(=O)C[C@@H]2N=C(c3ccc(Cl)cc3)c3c(sc(C)c3C)-n3c(C)nnc32)C(C)(C)C)cc1 [Compound 30]
- maximum inhibition Imax (c-Myc expression; [3]): 100%
- IC50 (c-Myc expression; [4]): 19.4 nM

Compound: Cc1ncsc1-c1ccc(CNC(=O)[C@@H]2C[C@@H](O)CN2C(=O)[C@@H](NC(=O)COCCOCCOCCNC(=O)C[C@@H]2N=C(c3ccc(Cl)cc3)c3c(sc(C)c3C)-n3c(C)nnc32)C(C)(C)C)cc1 [Compound 31]
- maximum inhibition Imax (c-Myc expression; [3]): 99.3%
- IC50 (c-Myc expression; [4]): 1.22 nM

Compound: Cc1ncsc1-c1ccc(CNC(=O)[C@@H]2C[C@@H](O)CN2C(=O)[C@@H](NC(=O)COCCCOCCCCCNC(=O)C[C@@H]2N=C(c3ccc(Cl)cc3)c3c(sc(C)c3C)-n3c(C)nnc32)C(C)(C)C)cc1 [Compound 32]
- maximum inhibition Imax (c-Myc expression; [3]): 98%
- IC50 (c-Myc expression; [4]): 0.86 nM

Compound: Cc1ncsc1-c1ccc(CNC(=O)[C@@H]2C[C@@H](O)CN2C(=O)[C@@H](NC(=O)COCCOCCOCCCCNC(=O)C[C@@H]2N=C(c3ccc(Cl)cc3)c3c(sc(C)c3C)-n3c(C)nnc32)C(C)(C)C)cc1 [Compound 33]
- maximum inhibition Imax (c-Myc expression; [3]): 97%
- IC50 (c-Myc expression; [4]): 5 nM

Compound: Cc1ncsc1-c1ccc(CNC(=O)[C@@H]2C[C@@H](O)CN2C(=O)[C@@H](NC(=O)COCCOCCOCCOCCNC(=O)C[C@@H]2N=C(c3ccc(Cl)cc3)c3c(sc(C)c3C)-n3c(C)nnc32)C(C)(C)C)cc1 [Compound 34]
- maximum inhibition Imax (c-Myc expression; [3]): 94%
- IC50 (c-Myc expression; [4]): 34 nM

Compound: Cc1ncsc1-c1ccc(CNC(=O)[C@@H]2C[C@@H](O)CN2C(=O)[C@@H](NC(=O)COCCOCCOCCCCOCCOCCNC(=O)C[C@@H]2N=C(c3ccc(Cl)cc3)c3c(sc(C)c3C)-n3c(C)nnc32)C(C)(C)C)cc1 [Compound 37]
- maximum inhibition Imax (c-Myc expression; [3]): 96.4%
- IC50 (c-Myc expression; [4]): 202 nM

Compound: Cc1ncsc1-c1ccc(CNC(=O)[C@@H]2C[C@@H](O)CN2C(=O)[C@@H](NC(=O)COCCOCCOCCOCCOCCOCCNC(=O)C[C@@H]2N=C(c3ccc(Cl)cc3)c3c(sc(C)c3C)-n3c(C)nnc32)C(C)(C)C)cc1 [Compound 38]
- maximum inhibition Imax (c-Myc expression; [3]): 62.2%
- IC50 (c-Myc expression; [4]): 707 nM

Compound: Cc1ncsc1-c1ccc(CNC(=O)[C@@H]2C[C@@H](O)CN2C(=O)[C@@H](NC(=O)CCCCCCCCNC(=O)C[C@@H]2N=C(c3ccc(Cl)cc3)c3c(sc(C)c3C)-n3c(C)nnc32)C(C)(C)C)cc1 [Compound 39]
- maximum inhibition Imax (c-Myc expression; [5]): 95.4%
- IC50 (c-Myc expression; [6]): 10.2 nM

Compound: Cc1ncsc1-c1ccc(CNC(=O)[C@@H]2C[C@@H](O)CN2C(=O)[C@@H](NC(=O)COCCCSCCNC(=O)C[C@@H]2N=C(c3ccc(Cl)cc3)c3c(sc(C)c3C)-n3c(C)nnc32)C(C)(C)C)cc1 [Compound 40]
- maximum inhibition Imax (c-Myc expression; [5]): 99%
- IC50 (c-Myc expression; [6]): 20.9 nM

Compound: Cc1ncsc1-c1ccc(CNC(=O)[C@@H]2C[C@@H](O)CN2C(=O)[C@@H](NC(=O)COCCCCCCNC(=O)C[C@@H]2N=C(c3ccc(Cl)cc3)c3c(sc(C)c3C)-n3c(C)nnc32)C(C)(C)C)cc1 [Compound 41]
- maximum inhibition Imax (c-Myc expression; [5]): 100%
- IC50 (c-Myc expression; [6]): 25.7 nM

Compound: Cc1ncsc1-c1ccc(CNC(=O)[C@@H]2C[C@@H](O)CN2C(=O)[C@@H](NC(=O)COCCCS(=O)(=O)CCNC(=O)C[C@@H]2N=C(c3ccc(Cl)cc3)c3c(sc(C)c3C)-n3c(C)nnc32)C(C)(C)C)cc1 [Compound 42]
- maximum inhibition Imax (c-Myc expression; [5]): 88.3%
- IC50 (c-Myc expression; [6]): 122 nM

Compound: Cc1sc2c(c1C)C(c1ccc(Cl)cc1)=N[C@@H](CC(=O)OC(C)(C)C)c1nnc(C)n1-2 [JQ1, reference compound]
- maximum inhibition Imax (c-Myc expression; [1]): 93%
- IC50 (c-Myc expression; Homo sapiens, 22Rv1, read-out: c-Myc expression IC50): 101 nM
- IC50 (c-Myc expression; Homo sapiens, 22Rv1, read-out: c-Myc expression inhibition IC50): 101 nM
